Patent publication US11033539B2, “Compounds of formulas (VII), (VIII), (IX), (XI), (XII), (XIII), and (XIV) as muscarinic receptor 4(M4) antagonists for treating neurological diseases” (Neurocrine Biosciences, Inc., priority 2015, dated 2021)

molecular target: human M4 receptor (Homo sapiens (Human), UniProt P08173); assay: Radioligand (tritiated N-methylscopolamine) binding assay, M4; settings: Ki against the M4 receptor; membranes from CHO cells expressing human M4; tritiated N-methylscopolamine 1.5 nM; read-out: Ki
Sequence (P08173 whole entry): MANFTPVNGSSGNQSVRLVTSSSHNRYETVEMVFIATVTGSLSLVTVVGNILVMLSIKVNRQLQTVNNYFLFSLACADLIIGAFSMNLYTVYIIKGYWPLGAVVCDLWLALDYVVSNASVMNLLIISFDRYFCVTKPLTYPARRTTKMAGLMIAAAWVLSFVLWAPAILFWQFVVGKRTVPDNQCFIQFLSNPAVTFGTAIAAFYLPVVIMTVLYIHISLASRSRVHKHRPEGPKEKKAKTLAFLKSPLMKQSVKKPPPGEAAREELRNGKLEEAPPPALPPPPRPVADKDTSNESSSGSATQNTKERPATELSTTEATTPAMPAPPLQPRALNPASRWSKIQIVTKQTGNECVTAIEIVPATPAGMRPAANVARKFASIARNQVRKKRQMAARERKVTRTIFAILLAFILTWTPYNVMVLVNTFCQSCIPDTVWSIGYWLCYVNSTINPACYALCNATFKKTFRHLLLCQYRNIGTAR
Procedure, shortened: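 CHO membranes; 1.5 nM radioligand; 12-point compound dose-response, 10 μM to […]; HEPES/NaCl/MgCl2/EDTA buffer pH 7.4; 90 min, 37 °C. PEI-treated glass fiber filtration, radioactivity counting. Ki from inhibition of binding.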

Ki [nM] | Compound
< 10 | C[C@@H]1CN(c2ncc(C(F)(F)F)cn2)C[C@@H](C)N1C(=O)NCCC1CCN(Cc2ccccc2)CC1 [26-5, (2R,6R)-N-[2-(1-benzylpiperidin-4-yl)ethyl]-2,6-dimethyl-4-[5-(trifluoromethyl)pyrimidin-2-yl]piperazine-1-carboxamide]
100 to 1000 | N#Cc1cc(N2CCN(C(=O)NCCC3CCN(Cc4ccccc4)CC3)CC2)ccc1F [8-22, N-[2-(1-benzylpiperidin-4-yl)ethyl]-4-(3-cyano-4-fluorophenyl)piperazine-1-carboxamide]
100 to 1000 | Cc1c(C(=O)NCCC2CCN(Cc3cccnc3)CC2)cnc2cc(-c3cccc(C(F)(F)F)c3)nn12 [19-1, 7-methyl-N-{2-[1-(pyridin-3-ylmethyl)piperidin-4-yl]ethyl}-2-[3-(trifluoromethyl)phenyl]pyrazolo[1,5-a]pyrimidine-6-carboxamide]
100 to 1000 | C[C@@H]1CN(c2ncc(C(=O)N3CCCC3)cn2)C[C@H](C)N1C(=O)NCCC1CCN(Cc2ccccc2)CC1 [27-2]
10 to 100 | O=C(NCCC1CCN(Cc2ccccc2)CC1)C1CCN(c2ccc(OC(F)(F)F)cc2F)CC1 [10-37, N-[2-(1-benzylpiperidin-4-yl)ethyl]-1-[2-fluoro-4-(trifluoromethoxy)phenyl]piperidine-4-carboxamide]
100 to 1000 | COc1ccc(-c2cc3ncc(C(=O)NCCC4CCN(Cc5ccccc5)CC4)c(C)n3n2)cc1 [9-51, N-[2-(1-benzylpiperidin-4-yl)ethyl]-2-(4-methoxyphenyl)-7-methylpyrazolo[1,5-a]pyrimidine-6-carboxamide]
10 to 100 | O=C(NCCC1CCN(Cc2ccccc2)CC1)C1(O)CCN(c2ccc(OC(F)(F)F)c(F)c2)CC1 [10-41, N-[2-(1-benzylpiperidin-4-yl)ethyl]-1-[3-fluoro-4-(trifluoromethoxy)phenyl]-4-hydroxypiperidine-4-carboxamide]
10 to 100 | O=C(NCCC1CCN(Cc2ccccc2)CC1)N1CCN(c2cccc(Cl)c2)CC1 [8-11, N-[2-(1-benzylpiperidin-4-yl)ethyl]-4-(3-chlorophenyl)piperazine-1-carboxamide]
10 to 100 | O=C(NCCC1(O)CCN(Cc2ccccc2)CC1)C1CCN(c2cccc(OC(F)(F)F)c2)CC1 [9-46, N-[2-(1-benzyl-4-hydroxypiperidin-4-yl)ethyl]-1-[3-(trifluoromethoxy)phenyl]piperidine-4-carboxamide]
100 to 1000 | Cc1c(C(=O)NCCC2CCN(Cc3ccccc3)CC2)cnc2cc(-c3ccccn3)nn12 [18-2, N-[2-(1-benzylpiperidin-4-yl)ethyl]-7-methyl-2-(pyridin-2-yl)pyrazolo[1,5-a]pyrimidine-6-carboxamide]
100 to 1000 | N#Cc1cccc(N2CCC(NC(=O)OCCC3CCN(Cc4ccccc4)CC3)CC2)c1 [12-5, 2-(1-benzylpiperidin-4-yl)ethyl N-[1-(3-cyanophenyl)piperidin-4-yl]carbamate]
100 to 1000 | N#Cc1cccc(N2CCN(C(=O)OCCC3CCN(Cc4ccccc4)CC3)CC2)c1 [12-2, 2-(1-benzylpiperidin-4-yl)ethyl 4-(3-cyanophenyl)piperazine-1-carboxylate]
100 to 1000 | O=C(NCCC1CCN(Cc2cccc(O)c2)CC1)c1ccc(Oc2ccccc2)cc1 [11-13, N-(2-{1-[(3-hydroxyphenyl)methyl]piperidin-4-yl}ethyl)-4-phenoxybenzamide]
100 to 1000 | O=C(NCCN[C@@H]1CCN(Cc2ccccc2)C1)C1CCN(c2cccc(OC(F)(F)F)c2)CC1 [9-54, N-(2-{[(3R)-1-benzylpyrrolidin-3-yl]amino}ethyl)-1-[3-(trifluoromethoxy)phenyl]piperidine-4-carboxamide]
100 to 1000 | COc1ccc(N2CCC(C(=O)NCCC3CCN(Cc4ccccc4)CC3)CC2)nc1 [10-28, N-[2-(1-benzylpiperidin-4-yl)ethyl]-1-(5-methoxypyridin-2-yl)piperidine-4-carboxamide]
100 to 1000 | O=C(NCCC1CCN(Cc2cccc3c2OCCO3)CC1)c1ccc(Oc2ccccc2)cc1 [11-18, N-{2-[1-(2,3-dihydro-1,4-benzodioxin-5-ylmethyl)piperidin-4-yl]ethyl}-4-phenoxybenzamide]
10 to 100 | COc1cc(N2CCN(C(=O)NCCC3CCN(Cc4ccccc4)CC3)[C@H](C)C2)ccc1C#N [22-28, (2R)-N-[2-(1-benzylpiperidin-4-yl)ethyl]-4-(4-cyano-3-methoxyphenyl)-2-methylpiperazine-1-carboxamide]
100 to 1000 | N#Cc1ccc(N2CCC(C(=O)NCCC3CCN(Cc4cccc5c4OCCO5)CC3)CC2)nc1 [11-16, 1-(5-cyanopyridin-2-yl)-N-{2-[1-(2,3-dihydro-1,4-benzodioxin-5-ylmethyl)piperidin-4-yl]ethyl}piperidine-4-carboxamide]
100 to 1000 | N#Cc1cc2ccccc2nc1-c1cc(C(=O)NCCC2CCN(Cc3ccccc3)CC2)ccc1Cl [9-60, N-[2-(1-benzylpiperidin-4-yl)ethyl]-4-chloro-3-(3-cyanoquinolin-2-yl)benzamide]
10 to 100 | CN(C(=O)NCCC1CCN(Cc2ccccc2)CC1)C1CCN(c2ccc(Br)cn2)C1 (stereo not shown) [8-9, 1-[2-(1-benzylpiperidin-4-yl)ethyl]-3-[1-(5-bromopyridin-2-yl)pyrrolidin-3-yl]-3-methylurea]
10 to 100 | O=C(OCCC1CCN(Cc2ccccc2)CC1)N1CCN(c2ccc(OC(F)(F)F)cc2)CC1 [12-1, 2-(1-benzylpiperidin-4-yl)ethyl 4-[4-(trifluoromethoxy)phenyl]piperazine-1-carboxylate]
100 to 1000 | O=C(NCCC1CCN(Cc2ccccc2O)CC1)c1ccc(Oc2ccccc2)cc1 [11-5, N-(2-{1-[(2-hydroxyphenyl)methyl]piperidin-4-yl}ethyl)-4-phenoxybenzamide]
10 to 100 | CN(CCNC(=O)C1CCN(c2ccc(OC(F)(F)F)cc2)CC1)[C@H]1CCN(Cc2ccccc2)C1 [9-17, N-(2-{[(3S)-1-benzylpyrrolidin-3-yl](methyl)amino}ethyl)-1-[4-(trifluoromethoxy)phenyl]piperidine-4-carboxamide]

Continued, compound first:

Compound | Ki [nM]
C[C@@H]1CN(c2cc(F)cc(C#N)c2)CCN1C(=O)NC[C@H](O)C1CCN(Cc2ccccc2)CC1 [7-4, (2R)-N-[(2R)-2-(1-benzylpiperidin-4-yl)-2-hydroxyethyl]-4-(3-cyano-5-fluorophenyl)-2-methylpiperazine-1-carboxamide] | 10 to 100
COc1ccc(N2CCN(C(=O)NCCC3CCN(Cc4ccccc4)CC3)CC2C)cc1 (stereo not shown) [4-56, N-[2-(1-benzylpiperidin-4-yl)ethyl]-4-(4-methoxyphenyl)-3-methylpiperazine-1-carboxamide] | 100 to 1000
C[C@@H]1CN(c2ncc(C#N)c(NCC(F)(F)F)n2)CCN1C(=O)NCCC1CCN(Cc2ccccc2)CC1 [5-7, (2R)-N-[2-(1-benzylpiperidin-4-yl)ethyl]-4-{5-cyano-4-[(2,2,2-trifluoroethyl)amino]pyrimidin-2-yl}-2-methylpiperazine-1-carboxamide] | 10 to 100
C[C@@H]1CN(c2ncc(C#N)c(NCC(F)(F)F)n2)C[C@H](C)N1C(=O)NCCC1CCN(Cc2ccccc2)CC1 [5-4, (2S,6R)-N-[2-(1-benzylpiperidin-4-yl)ethyl]-4-{5-cyano-4-[(2,2,2-trifluoroethyl)amino]pyrimidin-2-yl}-2,6-dimethylpiperazine-1-carboxamide] | 10 to 100
C[C@@H]1CN(c2cncc(C#N)c2)CCN1C(=O)NCCC1CCN(Cc2ccccc2)CC1 [4-23, (2R)-N-[2-(1-benzylpiperidin-4-yl)ethyl]-4-(5-cyanopyridin-3-yl)-2-methylpiperazine-1-carboxamide] | 100 to 1000
C[C@@H]1CN(c2nc(C#N)cc(C#N)n2)CCN1C(=O)NCCC1CCN(Cc2ccccc2)CC1 [4-38, (2R)-N-[2-(1-benzylpiperidin-4-yl)ethyl]-4-(4,6-dicyanopyrimidin-2-yl)-2-methylpiperazine-1-carboxamide] | 10 to 100
C[C@@H]1CN(c2nccc(C#N)n2)CCN1C(=O)NCCC1CCN(Cc2ccccc2)CC1 [3-15, (2R)-N-[2-(1-benzylpiperidin-4-yl)ethyl]-4-(4-cyanopyrimidin-2-yl)-2-methylpiperazine-1-carboxamide] | 10 to 100
C[C@@H]1CN(c2ccc(F)cc2)CCN1C(=O)NCCC1CCN(Cc2ccccc2)CC1 [4-30, (2R)-N-[2-(1-benzylpiperidin-4-yl)ethyl]-4-(4-fluorophenyl)-2-methylpiperazine-1-carboxamide] | 10 to 100
C[C@@H]1CN(c2ccc(C#N)cn2)CCN1C(=O)NCCC1CCN(Cc2ccccc2)CC1 [4-31, (2R)-N-[2-(1-benzylpiperidin-4-yl)ethyl]-4-(5-cyanopyridin-2-yl)-2-methylpiperazine-1-carboxamide] | 10 to 100
Nc1nc(N2CCN(C(=O)NCCC3CCN(Cc4ccccc4)CC3)CC2)ncc1Cl [5-33, 4-(4-amino-5-chloropyrimidin-2-yl)-N-[2-(1-benzylpiperidin-4-yl)ethyl]piperazine-1-carboxamide] | 10 to 100
Cc1ccc(N2CCN(C(=O)NCCC3CCN(Cc4ccccc4)CC3)[C@H](C)C2)cn1 [4-9, (2R)-N-[2-(1-benzylpiperidin-4-yl)ethyl]-2-methyl-4-(6-methylpyridin-3-yl)piperazine-1-carboxamide] | 100 to 1000
C[C@@H]1CN(c2ncc(Br)c(Cl)n2)CCN1C(=O)NCCC1CCN(Cc2ccccc2)CC1 [5-10, (2R)-N-[2-(1-benzylpiperidin-4-yl)ethyl]-4-(5-bromo-4-chloropyrimidin-2-yl)-2-methylpiperazine-1-carboxamide] | 100 to 1000
N#Cc1ccc(N2CCC(C(=O)NCCC3CCN(Cc4ccc5[nH]ccc5c4)CC3)CC2)nc1 [6-11, 1-(5-cyanopyridin-2-yl)-N-{2-[1-(1H-indol-5-ylmethyl)piperidin-4-yl]ethyl}piperidine-4-carboxamide] | 10 to 100
C[C@@H]1CN(c2cc(F)c(F)c(F)c2)CCN1C(=O)NCCC1CCN(CC2CCCCC2)CC1 [6-6, (2R)-N-{2-[1-(cyclohexylmethyl)piperidin-4-yl]ethyl}-2-methyl-4-(3,4,5-trifluorophenyl)piperazine-1-carboxamide] | 10 to 100
